Test results: patent publication US8912218B2, “Alkylthiazol carbamate derivatives, preparation thereof and therapeutic use thereof” (Sanofi, priority 2008, dated 2014)
pIC50: −log10 of the molar value.

How the values were obtained:
[1] = biological target: T1, FAAH (Fatty Acid Amide Hydrolase) (Mus musculus, UniProt O08914); assay: radioenzymatic assay of hydrolysis of anandamide [1-3H ethanolamine] by FAAH; type: biochemical; settings: mouse brain membrane homogenates; pre-incubation 20 minutes at 25° C.; anandamide final concentration 10 μM; read-out: IC50 (concentration inhibiting by 50% the control enzymatic activity of FAAH)
T1 construct: Membrane homogenates are prepared at the time of use by homogenizing the tissues; from tissue; host or cells: mouse brain (minus the cerebellum), membrane homogenate
T1 sequence (O08914 1-579): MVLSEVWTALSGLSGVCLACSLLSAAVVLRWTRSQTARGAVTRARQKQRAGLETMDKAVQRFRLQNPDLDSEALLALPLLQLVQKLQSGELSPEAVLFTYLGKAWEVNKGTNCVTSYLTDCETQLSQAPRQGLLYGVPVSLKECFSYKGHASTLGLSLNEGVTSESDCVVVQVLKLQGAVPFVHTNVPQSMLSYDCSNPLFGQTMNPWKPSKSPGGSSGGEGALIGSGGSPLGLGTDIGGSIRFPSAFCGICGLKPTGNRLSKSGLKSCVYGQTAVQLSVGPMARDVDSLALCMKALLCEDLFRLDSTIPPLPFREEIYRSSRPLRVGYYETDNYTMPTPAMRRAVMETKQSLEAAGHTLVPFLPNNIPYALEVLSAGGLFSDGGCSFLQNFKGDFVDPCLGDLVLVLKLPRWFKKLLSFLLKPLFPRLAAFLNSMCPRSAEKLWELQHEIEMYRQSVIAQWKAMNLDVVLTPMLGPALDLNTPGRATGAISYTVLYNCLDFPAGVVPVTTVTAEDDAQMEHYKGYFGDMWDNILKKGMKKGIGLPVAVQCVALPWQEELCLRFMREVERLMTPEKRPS
Method: The compounds of the invention were subjected to pharmacological tests allowing determination of their inhibitory effect on the enzyme FAAH (Fatty Acid Amide Hydrolase).
Accordingly, mouse brains (minus the cerebellum) are removed and stored at −80° C. Membrane homogenates are prepared at the time of use by homogenizing the tissues using a Precellys® apparatus in the reaction buffer (10 mM Tris-HCl pH=8, 150 mM NaCl and 1 mM ethylenediaminetetraacetic acid (EDTA)). The enzymatic reaction is conducted in 96-well Multiscreen filter plates, in a final volume of 70 μl. Reaction buffer supplemented with bovine serum albumin without fatty acids (BSA, 1 mg/ml) is used for the enzymatic reaction, the dilution of the compounds and of anandamide [1-^3H ethanolamine]. Added in succession to the wells are the reaction buffer containing the BSA (43 μl/well), the diluted test compounds at different concentrations (7 μl/well containing 1% DMSO) and the membrane preparation (10 μl/well or […] per assay). After the compounds have been pre-incubated with the enzyme at 25° C. for 20 minutes, the reaction is initiated by the addition of anandamide [1-^3H ethanolamine] […] The mixture is stirred for 10 minutes and then the aqueous phase containing the ethanolamine [1-^3H] is recovered by filtration under vacuum and counted by liquid scintillation.

[2] = test system: male OF 1 mice; assay: analgesia test: abdominal stretches induced by PBQ (phenylbenzoquinone); type: in vivo; settings: 30 mg/kg p.o. at 120 minutes, PBQ 2 mg/kg i.p.
Method: The in vivo activity of the compounds of the invention was evaluated in an analgesia test.
Accordingly, intraperitoneal (i.p.) administration of PBQ (phenylbenzoquinone, 2 mg/kg in a 0.9% sodium chloride solution containing 5% of ethanol) to male OF 1 mice weighing 25 to 30 g causes abdominal stretches, on average 30 twists or contractions during the period from 5 to 15 minutes after injection. The test compounds are administered orally (p.o.) or intraperitoneally (i.p.) in suspension in Tween 80 at 0.5%, 60 minutes or 120 minutes before the administration of PBQ.
For example, compounds 28 and 30 of the table reduce by 33% and 80%, respectively, the number of stretches induced by PBQ, at a dose of 30 mg/kg p.o. at 120 minutes.

O=C(NCCC1CCN(c2ccc(-c3ccc(F)cc3)cn2)CC1)OCc1cscn1 [Compound 30, Thiazol-4-ylmethyl 2-[5′-(4-fluorophenyl)-3,4,5,6-tetrahydro-2H-[1,2′]bipyridinyl-4-yl]ethylcarbamate]
pIC50 [1]: 8.15 | reduction of the number of stretches induced by PBQ [2]: 80% | melting point: 130 to 132 °C

O=C(NCCC1CCN(c2ccc3cc(Cl)ccc3n2)CC1)OC(c1nccs1)C(F)(F)F (racemic) [Compound 106, 2,2,2-Trifluoro-1-thiazol-2-ylethyl (+/−)-2-[1-(6-chloroquinolin-2-yl)piperidin-4-yl]ethylcarbamate]
melting point: 114 to 116 °C

CCOc1ccc(-c2ccc(N3CCC(CCNC(=O)OCc4nccs4)CC3)nc2)cc1 [Compound 38, Thiazol-2-ylmethyl 2-[5′-(4-ethoxyphenyl)-3,4,5,6-tetrahydro-2H-[1,2′]bipyridinyl-4-yl]ethylcarbamate]
melting point: 157 to 159 °C

O=C(NCCC1CCN(c2ccc(-c3ccc(F)cc3)cn2)CC1)OCc1nccs1 [Compound 28, Thiazol-2-ylmethyl 2-[5′-(4-fluorophenyl)-3,4,5,6-tetrahydro-2H-[1,2′]bipyridinyl-4-yl]-ethylcarbamate]
pIC50 [1]: 8.52 | reduction of the number of stretches induced by PBQ [2]: 33% | melting point: 131 to 133 °C

O=C(NCCC1CCN(c2cccc(-c3ccc(F)cc3)n2)CC1)OC(c1nccs1)C(F)(F)F (racemic) [Compound 50, 2,2,2-Trifluoro-1-thiazol-2-ylethyl (+/−)-2-[6′-(4-fluorophenyl)-3,4,5,6-tetrahydro-2H-[1,2′]bipyridinyl-4-yl]ethylcarbamate]
melting point: 121 to 123 °C

O=C(NCCC1CCN(c2ccc3cc(F)ccc3n2)CC1)OCc1cncs1 [Compound 117, Thiazol-5-ylmethyl 2-[1-(6-fluoroquinolin-2-yl)piperidin-4-yl]ethylcarbamate]
melting point: 100 to 102 °C

O=C(NCCC1CCN(c2ccc(-c3ccc(F)cc3)cn2)CC1)OCc1cncs1 [Compound 33, Thiazol-5-ylmethyl 2-[5′-(4-fluorophenyl)-3,4,5,6-tetrahydro-2H-[1,2′]bipyridinyl-4-yl]ethylcarbamate]
melting point: 100 to 102 °C
